Data: patent publication US20190255086A1, “Compositions and Methods for Treating an Infection” (CMPD Licensing, LLC, priority 2015, published 2019)

How the values were obtained:
Shigella dysenteriae = assay: Expected efficacy of anti-bacterial agents against various bacteria (Tables 5 and 6); conditions: Gram: neg
Vibrio cholerae = assay: as above; conditions: Gram: neg
Morganella morganii = assay: as above; conditions: Gram: neg
Yersinia pestis = conditions: expected efficacy; Yersinia pestis; Gram: neg
Haemophilus ducreyi = assay: Expected efficacy of anti-bacterial agents against various bacteria (Tables 5 and 6); conditions: Gram: neg
[1] = tested on: Staphylococcus aureus (MSSA); assay: as above; conditions: Gram: pos
Enterobacter sakazakii = assay: as above; conditions: Gram: neg
Haemophilus influenzae = assay: as above; conditions: Gram: neg
Enterobacter cloacae = assay: as above; conditions: Gram: neg
Enterococcus faecalis = assay: as above; conditions: Gram: pos
[2] = tested on: Methicillin resistant staph aureus (MRSA); assay: as above; conditions: Gram: pos
Providencia stuartii = assay: as above; conditions: Gram: neg
Corynebacterium jeikeium = assay: as above; conditions: Gram: pos
Citrobacter diversus = assay: as above; conditions: Gram: neg
Rickettsiae = conditions: expected efficacy; Rickettsiae; Gram: neg
Neisseria meningitidis = assay: Expected efficacy of anti-bacterial agents against various bacteria (Tables 5 and 6); conditions: Gram: neg
Moraxella catarrhalis = assay: as above; conditions: Gram: neg
[3] = tested on: Haemophilus parainfluenzae; assay: as above; conditions: Gram: neg
Citrobacter freundii = assay: as above; conditions: Gram: neg
Chlamydia psittaci = conditions: expected efficacy; Chlamydia psittaci; Gram: n/a
Legionella pneumophila = conditions: expected efficacy; Legionella pneumophila; Gram: neg
[4] = tested on: Viridans group streptococci; assay: Expected efficacy of anti-bacterial agents against various bacteria (Tables 5 and 6); conditions: Gram: pos
[5] = tested on: Acinetobacter calcoaceticus; assay: as above; conditions: Gram: neg
Serratia marcescens = assay: as above; conditions: Gram: neg
Chlamydia pneumoniae = assay: as above; conditions: Gram: n/a
Shigella sonnei = assay: as above; conditions: Gram: neg
Klebsiella pneumoniae = assay: as above; conditions: Gram: neg
Acinetobacter lwoffii = assay: as above; conditions: Gram: neg
Klebsiella oxytoca = assay: as above; conditions: Gram: neg
Enterococcus faecium = assay: as above; conditions: Gram: pos
[6] = tested on: Corynebacterium urealyticum; assay: as above; conditions: Gram: pos
Providencia rettgeri = assay: as above; conditions: Gram: neg
Bordetella pertussis = assay: as above; conditions: Gram: neg
Neisseria gonorrhoeae = assay: as above; conditions: Gram: neg
Campylobacter jejuni = assay: as above; conditions: Gram: neg
Proteus mirabilis = assay: as above; conditions: Gram: neg
Pseudomonas aeruginosa = assay: as above; conditions: Gram: neg
Escherichia coli = assay: as above; conditions: Gram: neg
Streptococcus pyogenes = assay: as above; conditions: Gram: pos
Streptococcus pneumoniae = assay: as above; conditions: Gram: pos
Clostridium perfringens = conditions: expected efficacy; Clostridium perfringens; Gram: anaer
Diphtheroids = assay: Expected efficacy of anti-bacterial agents against various bacteria (Tables 5 and 6); conditions: Gram: pos
Clostridium difficile = assay: as above; conditions: Gram: anaer
Chlamydia trachomatis = assay: as above; conditions: Gram: n/a
Peptostreptococcus = assay: as above; conditions: Gram: pos
Shigella flexneri = assay: as above; conditions: Gram: neg
Enterobacter aerogenes = assay: as above; conditions: Gram: neg
[7] = tested on: Staphylococcus epidermidis; assay: as above; conditions: Gram: pos
Acinetobacter baumannii = assay: as above; conditions: Gram: neg
Francisella tularensis = conditions: expected efficacy; Francisella tularensis; Gram: neg
Bacteroides fragilis = assay: Expected efficacy of anti-bacterial agents against various bacteria (Tables 5 and 6); conditions: Gram: anaer
Salmonella typhi = assay: as above; conditions: Gram: neg
Proteus vulgaris = assay: as above; conditions: Gram: neg
[8] = tested on: Klebsiella (Calymmatobacterium) granulomatis; assay: as above; conditions: Gram: neg
Shigella boydii = assay: as above; conditions: Gram: neg
Mycoplasma pneumoniae = assay: as above; conditions: Gram: n/a
Streptococcus agalactiae = assay: as above; conditions: Gram: pos
Pseudomonas fluorescens = assay: as above; conditions: Gram: neg
Brucella species = conditions: expected efficacy; Brucella species; Gram: neg

Compound: CO/N=C(\C(=O)N[C@@H]1C(=O)N2C(C(=O)O)=C(CSc3nc(=O)c(=O)[nH]n3C)CS[C@H]12)c1csc(N)n1 [Ceftriaxone]
- Efficacy of various antibiotic agents (Shigella dysenteriae): yes
- Efficacy of various antibiotic agents (Vibrio cholerae): no
- Efficacy of various antibiotic agents (Morganella morganii): yes
- Efficacy of various antibiotic agents (Yersinia pestis): no
- Efficacy of various antibiotic agents (Haemophilus ducreyi): yes
- Efficacy of various antibiotic agents [1]: yes
- Efficacy of various antibiotic agents (Enterobacter sakazakii): yes
- Efficacy of various antibiotic agents (Haemophilus influenzae): yes
- Efficacy of various antibiotic agents (Enterobacter cloacae): yes
- Efficacy of various antibiotic agents (Enterococcus faecalis): no
- Efficacy of various antibiotic agents [2]: no
- Efficacy of various antibiotic agents (Providencia stuartii): yes
- Efficacy of various antibiotic agents (Corynebacterium jeikeium): no
- Efficacy of various antibiotic agents (Citrobacter diversus): yes
- Efficacy of various antibiotic agents (Rickettsiae): no
- Efficacy of various antibiotic agents (Neisseria meningitidis): yes
- Efficacy of various antibiotic agents (Moraxella catarrhalis): yes
- Efficacy of various antibiotic agents [3]: yes
- Efficacy of various antibiotic agents (Citrobacter freundii): yes
- Efficacy of various antibiotic agents (Chlamydia psittaci): no
- Efficacy of various antibiotic agents (Legionella pneumophila): no
- Efficacy of various antibiotic agents [4]: yes
- Efficacy of various antibiotic agents [5]: no
- Efficacy of various antibiotic agents (Serratia marcescens): yes
- Efficacy of various antibiotic agents (Chlamydia pneumoniae): no
- Efficacy of various antibiotic agents (Shigella sonnei): yes
- Efficacy of various antibiotic agents (Klebsiella pneumoniae): yes
- Efficacy of various antibiotic agents (Acinetobacter lwoffii): no
- Efficacy of various antibiotic agents (Klebsiella oxytoca): yes
- Efficacy of various antibiotic agents (Enterococcus faecium): no
- Efficacy of various antibiotic agents [6]: no
- Efficacy of various antibiotic agents (Providencia rettgeri): yes
- Efficacy of various antibiotic agents (Bordetella pertussis): no
- Efficacy of various antibiotic agents (Neisseria gonorrhoeae): yes
- Efficacy of various antibiotic agents (Campylobacter jejuni): no
- Efficacy of various antibiotic agents (Proteus mirabilis): yes
- Efficacy of various antibiotic agents (Pseudomonas aeruginosa): no
- Efficacy of various antibiotic agents (Escherichia coli): yes
- Efficacy of various antibiotic agents (Streptococcus pyogenes): yes
- Efficacy of various antibiotic agents (Streptococcus pneumoniae): yes
- Efficacy of various antibiotic agents (Clostridium perfringens): yes
- Efficacy of various antibiotic agents (Diphtheroids): no
- Efficacy of various antibiotic agents (Clostridium difficile): no
- Efficacy of various antibiotic agents (Chlamydia trachomatis): no
- Efficacy of various antibiotic agents (Peptostreptococcus): yes
- Efficacy of various antibiotic agents (Shigella flexneri): yes
- Efficacy of various antibiotic agents (Enterobacter aerogenes): yes
- Efficacy of various antibiotic agents [7]: yes
- Efficacy of various antibiotic agents (Acinetobacter baumannii): no
- Efficacy of various antibiotic agents (Francisella tularensis): no
- Efficacy of various antibiotic agents (Bacteroides fragilis): yes
- Efficacy of various antibiotic agents (Salmonella typhi): yes
- Efficacy of various antibiotic agents (Proteus vulgaris): yes
- Efficacy of various antibiotic agents [8]: yes
- Efficacy of various antibiotic agents (Shigella boydii): yes
- Efficacy of various antibiotic agents (Mycoplasma pneumoniae): no
- Efficacy of various antibiotic agents (Streptococcus agalactiae): yes

Compound: Colistimethate
- Efficacy of various antibiotic agents (Vibrio cholerae): no
- Efficacy of various antibiotic agents (Pseudomonas fluorescens): yes
- Efficacy of various antibiotic agents (Brucella species): no
- Efficacy of various antibiotic agents [1]: no
- Efficacy of various antibiotic agents (Enterobacter sakazakii): yes
- Efficacy of various antibiotic agents (Enterobacter cloacae): yes
- Efficacy of various antibiotic agents (Enterococcus faecalis): no
- Efficacy of various antibiotic agents [2]: no
- Efficacy of various antibiotic agents (Providencia stuartii): no
- Efficacy of various antibiotic agents (Corynebacterium jeikeium): no
- Efficacy of various antibiotic agents (Neisseria meningitidis): no
- Efficacy of various antibiotic agents (Moraxella catarrhalis): no
- Efficacy of various antibiotic agents [3]: no
- Efficacy of various antibiotic agents (Chlamydia psittaci): no
- Efficacy of various antibiotic agents (Legionella pneumophila): no
- Efficacy of various antibiotic agents [4]: no
- Efficacy of various antibiotic agents (Serratia marcescens): no
- Efficacy of various antibiotic agents (Chlamydia pneumoniae): no
- Efficacy of various antibiotic agents (Klebsiella pneumoniae): yes
- Efficacy of various antibiotic agents (Klebsiella oxytoca): yes
- Efficacy of various antibiotic agents (Enterococcus faecium): no
- Efficacy of various antibiotic agents [6]: no
- Efficacy of various antibiotic agents (Providencia rettgeri): no
- Efficacy of various antibiotic agents (Bordetella pertussis): no
- Efficacy of various antibiotic agents (Neisseria gonorrhoeae): no
- Efficacy of various antibiotic agents (Proteus mirabilis): no
- Efficacy of various antibiotic agents (Pseudomonas aeruginosa): yes
- Efficacy of various antibiotic agents (Escherichia coli): yes
- Efficacy of various antibiotic agents (Streptococcus pyogenes): no
- Efficacy of various antibiotic agents (Streptococcus pneumoniae): no
- Efficacy of various antibiotic agents (Diphtheroids): no
- Efficacy of various antibiotic agents (Clostridium difficile): no
- Efficacy of various antibiotic agents (Chlamydia trachomatis): no
- Efficacy of various antibiotic agents (Peptostreptococcus): no
- Efficacy of various antibiotic agents (Enterobacter aerogenes): yes
- Efficacy of various antibiotic agents [7]: no
- Efficacy of various antibiotic agents (Bacteroides fragilis): no
- Efficacy of various antibiotic agents (Proteus vulgaris): no
- Efficacy of various antibiotic agents [8]: yes
- Efficacy of various antibiotic agents (Mycoplasma pneumoniae): no
- Efficacy of various antibiotic agents (Streptococcus agalactiae): no
